Publication PMC11825364, “Development of supramolecular anticoagulants with on-demand reversibility” (Nature Biotechnology, 2024)

Assays:
[1] = test system: C57BL/6J mice; test: Needle injury thrombosis model; assay type: in vivo, mouse; conditions: A1–E1 5 mg per kg i.v. bolus twice 30 min apart, argatroban 2 mg per kg bolus + 12 mg per kg infusion over 60 min
Method: For intravital mouse studies, male mice aged between 5 and 8 weeks old (15–20 g) were used.
A clinical preparation of argatroban (Argatra/Exembol) was purchased from Mitsubishi Tanabe Pharma (Germany) and prepared in sterile saline with 25% (vol/vol) propylene glycol. Synthesized PNA inhibitors and PNA inhibitors + antidote solutions were prepared in sterile saline at a concentration of 2 mg ml^–1. C57BL/6J male mice (15–25 g) were anesthetized with ketamine (150 mg per kg (body weight)) and xylazine (15 mg per kg (body weight)), supplemented with oxygen and subjected to intravital needle injury, as previously described[42]. […] Following each injury, platelet thrombus formation and fibrin generation were monitored over a 15-min period using a confocal intravital microscopy platform (Nikon A1R-Si with an Apo LWD, ×40/1.15-NA water immersion objective; sequential excitation: 488-, 561- and 638-nm lasers; emission: 525/50-, 595/50- and 700/75-nm filters) and NIS Elements Advanced Research acquisition software. […]
The signal obtained from DyLight 649-conjugated anti-GP1bβ for each xyz stack in a time series was thresholded to create a mask. The total signal (arbitrary units) from Alexa Fluor 546-conjugated anti-fibrin within this mask (that is, the fibrin signal within the thrombus) for each time point was then quantified using NIS Elements software (Nikon). […]

[2] = molecular target: Biotin-PNA (8-mer) ACAACTGC; test: SPR of PNA hybridization; assay type: binding; conditions: 25 °C
Method: SPR experiments were performed on a Biacore T200 instrument (GE Healthcare) at 25 °C in PBS-P+ buffer (10× stock; Cytiva Life Sciences, 28995084). Biotin-PNA (8-mer) was immobilized on a Streptavidin Series S sensor chip (Cytiva Life Sciences, 29104992). Before immobilization, the two channels were conditioned with 1 M NaCl in 50 mM NaOH. After stabilization, the compound (solution in PBS-P+) was flowed over one of the flow cells of the sensor chip at a concentration of 50 nM at a flow rate of 10 μl min^−1 with a response unit target of 500. Biotin-PNA (8-mer) reached a response unit value of 513.7. The system (not including the flow cells) was washed with 50% isopropanol in 1 M NaCl and 50 mM NaOH after each ligand injection. Kinetic measurements consisted of injections (association, 400 s; dissociation, 450 s; flow rate, 30 μl min^−1) of decreasing concentrations of PNA (4-, 6- and 8-mer; twofold cascade dilutions from the starting concentration). The chip was regenerated between cycles by one injection of regeneration solution (50 mM NaOH) for 10 s at a flow rate of 20 μl min^−1, followed by a 10-s stabilization period. Binding was measured as resonance units over time after blank subtraction, and the data were interpreted using Biacore T200 software (version 3.2). All measurements were performed in duplicate. The KD values were calculated based on steady-state affinity (1:1 binding).

[3] = molecular target: T1, human α-thrombin (Homo sapiens, UniProt P00734); test: Michaelis Menten determination of KM of the fluorogenic substrate; assay type: biochemical; conditions: without inhibitor, variation of [substrate]; R2 0.98
T1 construct: human α-thrombin (Haematologic Technologies, HCT0020); purchased Haematologic Technologies HCT0020
Method: Inhibition assays were performed using 0.2 nM enzyme, 20 μM substrate and increasing concentrations of inhibitor. The concentration of each inhibitor variant was determined using the absorbance of the PNA at 260 nm, as measured by NanoDrop. All reactions were performed at 37 °C in 50 mM Tris-HCl (pH 8.0), 50 mM NaCl and 1 mg ml^–1 bovine serum albumin in black 96-well microtiter plates (Thermo Fisher Scientific, 267342). Reaction progress was monitored by excitation at 339 nm and emission at 439 nm using a SpectraMax or Tecan Spark Plate Reader. Dose–response curves were used to determine the half-maximal inhibitory concentrations (IC50) using Prism 8.0 (GraphPad Software). For each inhibitor, the reactions were performed in triplicate, together with control reactions in the absence of enzyme. The initial velocity was calculated from the slope of the first 10 min of the assay. The curves were normalized to the well without inhibitor, where the initial velocity was set to 100% activity.
MALDI-TOF; m/z found: 1202.95.
5. Thrombin Inhibition Assay
Supplementary Figure 2: Thrombin Fluorogenic Assay
The assay was performed as described in the Online Methods section.
To convert IC50 values to Ki values, KM was determined: The assay described above was performed
without inhibitor but with variation of [substrate]. The Michaelis Menten plot was obtained, and KM […]

For `CC1CNc2c(cccc2S(=O)(=O)N[C@@H](CCCNC(=N)N)C(=O)N2CC[C@@H](C)C[C@@H]2C(=O)O)C1` (stereo partly shown) [argatroban], which “fibrin formation and thrombus size” value [1] is on record?
The value was “significant decreases in fibrin formation and thrombus size”.

CAGT was tested. Which Kd [2] did it give?
The Kd was 4.14 µM.

Which results are given for “phe-Pro-Arg-Coumarin [(S)-1-(D-phenylalanyl)-N-((S)-5-guanidino-1-((4-methyl-2-oxo-2H-chromen-7-yl)amino)-1-oxopentan-2-yl)pyrrolidine-2-carboxamide, substrate of the thrombin assay]”?
Km [3]: 2.42 µM; Vmax [3]: 435.8
